Data: paper PMC4872784 (Oncotarget, 2016)
Values joined by “and” are separate entries in the source; they are usually repeats but may differ in a detail not shown here. Identical values can stand only once. Counter-ions that a name gives are not always drawn. Each block holds one compound with its values, some of them ahead of it.

Assays:
[1] = tested on: KOPN8 cells; experiment: alamarBlue cytotoxicity assay, 48h; type: cell-based, human; conditions: RPMI + 10% FBS
Description: (§1) Following subtraction of background fluorescence from all wells, fluorescence of drug-treated cells was normalized to that of vehicle (<0.5% DMSO)-treated cells to determine the effect of each drug concentration on viability. Each cell line was tested in triplicate and in at least three independent experiments. IC50 (concentration that inhibits cell growth by 50%) values were calculated using CompuSyn software (ComboSyn, Paramus, NJ). […] In addition several cell lines were initially cultured and tested in alternative media (Supplementary Table S2). […] Colony counts were normalized to vehicle-treated controls (100%). Three independent experiments were performed.
(§2) In most experiments, cytotoxicity was assessed using alamarBlue assays (Life Technologies, Grand Island, NY). In experiments using NAC and DFO, which can interfere with alamarBlue assay performance, Trypan Blue dye exclusion was used instead. […]
(§3) experiments performed in triplicate. […] Age refers to age […]
(§4) at the time of leukemia diagnosis of the patient from whom the cell line was derived. (–) Indicates information unavailable.
(§5) *Cell lines with FLT3/ITD mutations.
(§6) *The MV-4–11 cell line was derived from a patient with a biphenotypic B-myelomonocytic leukemia; K562 was derived […]
(§7) 1A. p53 status was obtained from http://cancer.sanger.ac.uk/cell_lines/cbrowse/all and http://p53.free.fr/Database/Cancer_ cell_lines/Leukemia_cancer. html. WT: wild type. Mut: mutant. SM: single mutation. DM: double mutation. MM: multiple mutations. Fs: Frameshift mutation. Null: protein expression undetectable. […]
(§8) measured via alamarBlue assay. […]

[2] = tested on: MOLM14 cells; experiment: alamarBlue cytotoxicity assay, 48h; type: cell-based, human; conditions: MOLM14 (AML), 48h, RPMI + 10% FBS
Description: as §1, §2, §3, §4, §5, §6, §7, §8

[3] = tested on: MOLM14 cells; experiment: viable cell counts via Trypan Blue dye exclusion, 48h; type: cell-based, human; conditions: read-out: approximate 48h IC50
Description: A. Quantification of the percentage of early apoptotic cells (Annexin-V+/7-AAD-) from three independent experiments in which cells were stained for apoptosis with 7-AAD and Annexin-V then analyzed by flow cytometry. […] C. […] 16h after addition of drugs, cells were washed and analyzed by flow cytometry for CM-H2DCFDA fluorescence (indicating total ROS generation) in the FL1 channel. Mean Fluorescence Intensity (MFI) was normalized to that of vehicle control (0.5% DMSO) with no pretreatment. […] Viable cell counts, obtained via Trypan Blue dye exclusion, were normalized to vehicle (0.02% DMSO)-treated samples +/– pretreatment.
In most experiments, cytotoxicity was assessed using alamarBlue assays (Life Technologies, Grand Island, NY). In experiments using NAC and DFO, which can interfere with alamarBlue assay performance, Trypan Blue dye exclusion was used instead.

[4] = plasma pharmacokinetics after single oral dose; conditions: single oral dose AS 200 mg/kg, NSG mice
Description: (§9) Plasma samples were obtained from 3-6 male NSG mice per time point (15min-24h after drug administration). Symbols represent concentrations of compound by LC/MS-MS detection.
(§10) Blood samples were collected via retro-orbital bleeding into EDTA-coated tubes. PK samples were centrifuged to obtain plasma, which was stored frozen (−80°C) until liquid chromatography/triple quadrupole mass spectrometry (LC/MS-MS) analysis.
(§11) were separated using an Agilent Zorbax Eclipse C18 column (2.1 mm x 50 mm, 3.5 μm) using gradient mobile phase
(§12) (acetonitrile and 2 mM ammonium acetate both containing 0.1% formic acid) and a gradient flow rate (0.2 to 0.4 ml/
(§13) min). An AB Sciex 5500 triple quadrupole mass spectrometer was used for detection. The m/z transitions used were
(§14) The calibration range was 5–1,000 ng/mL for all analytes. Mean drug concentrations were calculated at each time point. PK parameters (plasma
(§15) half-life [T1/2]; time to reach Cmax [Tmax]; maximum plasma concentration [Cmax]; area under the plasma concentration-
(§16) time curve [AUC] from time zero to the last measurable concentration [AUClast]; AUC from time zero to infinity [i.e.,
(§17) the AUClast + the extrapolated AUC from AUClast to infinity; AUC0–∞]; apparent volume of distribution [Vz/F]; body
(§18) weight-adjusted apparent clearance [CL/F/kg]) were calculated from mean drug concentration-time data using non-
(§19) the r2 of the elimination rate constant (λ ) was < 0.9, the AUC , CL/F, and T were not reported (NR).

[5] = in vivo; conditions: male, NSG, mouse, plasma, po, 200 mg/kg
Description: as §9, §10, §11, §12, §13, §14, §15, §16, §17, §18, §19

[6] = Homo sapiens, KOPN-8, KOPN8 (B-ALL)

Structure (SMILES): Nc1ccn([C@@H]2O[C@H](CO)[C@@H](O)[C@@H]2O)c(=O)n1 [ARA, cytosine arabinoside]
IC50 ([1]; KOPN8 (B-ALL)): 73 nM
IC50 [2]: 286 nM

Structure (SMILES): CC(=O)N(O)CCCCCNC(=O)CCC(=O)N(O)CCCCCNC(=O)CCC(=O)N(O)CCCCCN [DFO, deferoxamine mesylate]
IC50 ([3]; Homo sapiens, MOLM-14, 48 h): ~11000 nM

T1/2 ([4]; plasma): < 60 min
time by which plasma declined to undetectable levels [4]: ≤ 4 h
AUC(0-inf) [5]: 1300 ng·h/mL
AUC(0-t) [5]: 1290 ng·h/mL
CL/F [5]: 2050 mL/min/kg
Cmax [5]: 1630 ng/mL and 5.74 µM
Tmax [5]: 15 min
Vd/F [5]: 103 L/kg
half-life [5]: 34.8 min
Structure (SMILES): C[C@H]1[C@@H](O)O[C@@H]2O[C@@]3(C)CC[C@H]4[C@H](C)CC[C@@H]1[C@@]24OO3 [DHA, dihydroartemisinin]
IC50 [1, 6]: 351 nM
IC50 ([2]; Homo sapiens, MOLM-14): 1020 nM

Structure (SMILES): COc1cccc2c1C(=O)c1c(O)c3c(c(O)c1C2=O)C[C@@](O)(C(=O)CO)C[C@@H]3O[C@H]1C[C@H](N)[C@H](O)[C@H](C)O1 [DOX, doxorubicin]
IC50 [1, 6]: 30 nM
IC50 ([2]; Homo sapiens, MOLM-14): 79 nM

Structure (SMILES): COc1cc([C@@H]2c3cc4c(cc3[C@@H](O[C@@H]3O[C@@H]5CO[C@@H](C)O[C@H]5[C@H](O)[C@H]3O)[C@H]3COC(=O)[C@H]23)OCO4)cc(OC)c1O [ETO, etoposide]
IC50 [1, 6]: 150 nM
IC50 ([2]; Homo sapiens, MOLM-14): 242 nM

Structure (SMILES): C[C@]12O[C@H](C[C@]1(O)CO)n1c3ccccc3c3c4c(c5c6ccccc6n2c5c31)CNC4=O [LES, lestaurtinib]
IC50 [1, 6]: 45 nM
IC50 ([2]; Homo sapiens, MOLM-14): 3 nM

Structure (SMILES): CO[C@@H]1[C@H](N(C)C(=O)c2ccccc2)C[C@H]2O[C@]1(C)n1c3ccccc3c3c4c(c5c6ccccc6n2c5c31)C(=O)NC4 [MID, midostaurin]
IC50 [1, 6]: 210 nM

IC50 ([3]; MOLM14, preliminary experiments): ~25000 nM
Structure (SMILES): CC(=O)N[C@@H](CS)C(=O)O [NAC, N-acetyl cysteine]

Structure (SMILES): CNC(=O)c1cc(Oc2ccc(NC(=O)Nc3ccc(Cl)c(C(F)(F)F)c3)cc2)ccn1 [SOR, sorafenib]
IC50 [1, 6]: 4200 nM
IC50 ([2]; Homo sapiens, MOLM-14): 4 nM
